In US7405205B2, “Antitumor antisense sequences directed against R1 and R2 components of ribonucleotide reductase” (Lorus Therapeutics Inc., priority 1996, dated 2008):
Strand notation (5' to 3'): a small letter for the sugar, then the base; units joined by * are phosphorothioate-linked, units joined directly phosphodiester-linked; [ ] holds rarer units or linkages, { } end groups; capitals alone tell only the bases. d = 2'-deoxy (DNA)

What was measured:
Format in all cases: cell-based, human
[1] = tested on: T24 bladder cell carcinoma; assay: Relative colony forming efficiency after antisense treatment (Table 13); details: 0.2 μM antisense oligodeoxyribonucleotide phosphorothioate; T24 cells; averages of 2-8 determinations
[2] = tested on: HCT116 colon cell carcinoma; assay: as above; details: 0.2 μM antisense oligodeoxyribonucleotide phosphorothioate; HCT116 cells; averages of 2-8 determinations
[3] = tested on: A549 lung cell carcinoma; assay: as above; details: 0.2 μM antisense oligodeoxyribonucleotide phosphorothioate; A549 cells; averages of 2-8 determinations
[4] = tested on: MDA-MB-231 breast cell adenocarcinoma; assay: Relative colony forming efficiency after antisense treatment (Table 13, FIG. 11, FIG. 12); details: 0.2 μM antisense oligodeoxyribonucleotide phosphorothioate; MDA-MB-231 cells; averages of 2-8 determinations
Protocol: Colony forming efficiency was determined as previously reported [Huang and Wright, 1994]. The cells were cultured for 24 hours at 37° C. in growth medium with 10% fetal bovine serum. The cells were washed in 5 ml phosphate buffered saline, pH 7.2, once prior to lipofectin+/−oligonucleotide treatment.
The oligonucleotides being tested were added to cell cultures in the presence of 2.5 μg of DOTMA/DOPE (Lipofectin; Life Technologies, Inc.) for four hours. The oligonucleotide was tested at 0.2 μM unless otherwise indicated. Controls were the cultures treated with lipofectin but without the oligonucleotide. After 4 hours the medium containing the oligonucleotide was removed and washed with 5 ml of growth medium. The cells were then cultured in growth medium containing 10% fetal bovine serum for seven to ten days. Surviving cells were visualized by methylene blue staining, and colonies were scored. In some experiments cell aliquotes were removed from the culture and viability was determined using the trypan blue exclusion test [Phillips, 1973]. Results were analyzed as percent of surviving cells compared to control cells.
To test the antisense effects of many of these sequences as phosphorthioate deoxyribonucleotides, they were examined in relative colony forming experiments performed with a series of human tumor cell lines. Many of these antisense constructs, as predicted, are potent inhibitors of human tumor cell proliferation. For results obtained with cancer cells derived from the bladder, breast, lung, colon, pancreas, prostate, liver and cervix, see Table 13. In addition, in vivo studies with AS-II-626-20 were undertaken in C3H/HeN mice as reported in Table 14 and show a significant reduction in metastasis in the antisense treated mice.
Colony forming ability of MDA-MB-231 human breast cancer cells treated with 28 different antisense oligonucleotides was estimated as previously described (Choy et al., 1988). Aliquots of cell suspension were seeded into 60 mm Petri dishes and incubated at 37° C. overnight in α-MEM medium supplemented with 10% fetal bovine serum. Cells were washed in 5 ml of phosphate buffered saline, pH 7.2, prior to 0.2 μM antisense/lipofectin treatments for 4 hours. The media containing the antisense oligonucleotides were removed and cells were washed once and cultured in growth medium for 7 to 10 days. Colonies were stained with methylene blue and scored as described (Choy et al., 1988; Huang and Wright 1994). Percent inhibition was calculated by comparison with the number of colonies present in cultures grown in the absence of antisense oligonucleotides. All experiments were performed in quadruplicate. FIG. 11 is a graph of the percentage inhibition of colony formation by treatment with the various antisense oligonucleotides.
Colony forming ability of various human tumor cell lines was estimated by determining relative colony forming efficiencies (Choy et al., 1988). Cells from various cell lines were washed in 5 ml of phosphate buffered saline, pH 7.2. The cells were treated with 0.2 μM AS-I-618-20 antisense oligonucleotide/lipofectin for 4 hours. The medium containing the antisense oligonucleotide was then removed and the cells were gently washed with 5 ml of growth medium. The cells were cultured in growth medium containing 10% fetal bovine serum for seven to ten days. […] The following human tumor cell lines were evaluated: HepG2 (liver), SK-OV-3 (ovary), U87 (brain), A2058 (melanoma), H460 (lung), MDA-MB-231 (breast) and AsPC-1 (pancreas).

[5] = tested on: MIA PaCa-2 pancreatic cell carcinoma; assay: Relative colony forming efficiency after antisense treatment (Table 13); details: 0.2 μM antisense oligodeoxyribonucleotide phosphorothioate; MIA PaCa-2 cells; averages of 2-8 determinations
[6] = tested on: PC-3 prostrate cell adenocarcinoma; assay: as above; details: 0.2 μM antisense oligodeoxyribonucleotide phosphorothioate; PC-3 cells; averages of 2-8 determinations
[7] = tested on: HepG2 hepatocellular carcinoma; assay: Relative colony forming efficiency after antisense treatment (Table 13, FIG. 12); details: 0.2 μM antisense oligodeoxyribonucleotide phosphorothioate; HepG2 cells; averages of 2-8 determinations

CACACAACCTACTTACACCA (antisense; DNA, all phosphorothioate, methylation of C not given here) [AS-II-2372-20]
Reduced relative colony forming efficiency, expressed as % inhibition, T24 [1]: 61.13%
Reduced relative colony forming efficiency, expressed as % inhibition, HCT116 [2]: 64.7%
Reduced relative colony forming efficiency, expressed as % inhibition, A549 [3]: 96.41%
Reduced relative colony forming efficiency, expressed as % inhibition, MDA-MB-231 [4]: 90.09%
Reduced relative colony forming efficiency, expressed as % inhibition, MIA PaCa-2 [5]: 94.36%
Reduced relative colony forming efficiency, expressed as % inhibition, PC-3 [6]: 86.06%

ATGGAAAAAAAAAATCAGCC (DNA, all phosphorothioate, methylation of C not given here) [AS-II-1390-20]
Reduced relative colony forming efficiency, expressed as % inhibition, T24 [1]: 61.13%
Reduced relative colony forming efficiency, expressed as % inhibition, HCT116 [2]: 62.18%
Reduced relative colony forming efficiency, expressed as % inhibition, A549 [3]: 88.31%
Reduced relative colony forming efficiency, expressed as % inhibition, MDA-MB-231 [4]: 66.89%
Reduced relative colony forming efficiency, expressed as % inhibition, MIA PaCa-2 [5]: 82.77%
Reduced relative colony forming efficiency, expressed as % inhibition, PC-3 [6]: 76.76%
Reduced relative colony forming efficiency, expressed as % inhibition, HepG2 [7]: 90.21%

GCAAAGGCTACAACACGTTC (antisense; DNA, all phosphorothioate, methylation of C not given here) [AS-II-861-20]
Reduced relative colony forming efficiency, expressed as % inhibition, T24 [1]: 73.5%
Reduced relative colony forming efficiency, expressed as % inhibition, HCT116 [2]: 74.2%
Reduced relative colony forming efficiency, expressed as % inhibition, A549 [3]: 95.78%
Reduced relative colony forming efficiency, expressed as % inhibition, MDA-MB-231 [4]: 89.98%
Reduced relative colony forming efficiency, expressed as % inhibition, MIA PaCa-2 [5]: 97.3%
Reduced relative colony forming efficiency, expressed as % inhibition, PC-3 [6]: 87.33%
Reduced relative colony forming efficiency, expressed as % inhibition, HepG2 [7]: 96.08%

GACATCACTCCCATCCTCTG (DNA, all phosphorothioate, methylation of C not given here) [AS-II-1302-20]
Reduced relative colony forming efficiency, expressed as % inhibition, T24 [1]: 70.56%
Reduced relative colony forming efficiency, expressed as % inhibition, HCT116 [2]: 71.98%
Reduced relative colony forming efficiency, expressed as % inhibition, A549 [3]: 93.17%
Reduced relative colony forming efficiency, expressed as % inhibition, MDA-MB-231 [4]: 92.2%
Reduced relative colony forming efficiency, expressed as % inhibition, MIA PaCa-2 [5]: 23.86%
Reduced relative colony forming efficiency, expressed as % inhibition, PC-3 [6]: 79.01%

GCAAAGAAAGCCAGAACATG (dG*dC*dA*dA*dA*dG*dA*dA*dA*dG*dC*dC*dA*dG*dA*dA*dC*dA*dT*dG; antisense) [AS-II-579-20]
Reduced relative colony forming efficiency, expressed as % inhibition, T24 [1]: 76.68%
Reduced relative colony forming efficiency, expressed as % inhibition, HCT116 [2]: 69.08%
Reduced relative colony forming efficiency, expressed as % inhibition, A549 [3]: 95.49%
Reduced relative colony forming efficiency, expressed as % inhibition, MDA-MB-231 [4]: 66.89%
Reduced relative colony forming efficiency, expressed as % inhibition, MIA PaCa-2 [5]: 97.55%
Reduced relative colony forming efficiency, expressed as % inhibition, PC-3 [6]: 88.16%
Reduced relative colony forming efficiency, expressed as % inhibition, HepG2 [7]: 94.28%

TCAGGCAAGCAAAATCACAG (DNA, all phosphorothioate, methylation of C not given here) [AS-II-1001-20]
Reduced relative colony forming efficiency, expressed as % inhibition, T24 [1]: 86.11%
Reduced relative colony forming efficiency, expressed as % inhibition, HCT116 [2]: 55.58%
Reduced relative colony forming efficiency, expressed as % inhibition, A549 [3]: 71.36%
Reduced relative colony forming efficiency, expressed as % inhibition, MDA-MB-231 [4]: 82.17%
Reduced relative colony forming efficiency, expressed as % inhibition, MIA PaCa-2 [5]: 64.21%
Reduced relative colony forming efficiency, expressed as % inhibition, PC-3 [6]: 85.94%
Reduced relative colony forming efficiency, expressed as % inhibition, HepG2 [7]: 90.36%

TTAGAAGTCAGCATCCAAGG (DNA, all phosphorothioate, methylation of C not given here) [AS-II-1345-20]
Reduced relative colony forming efficiency, expressed as % inhibition, T24 [1]: 51.26%
Reduced relative colony forming efficiency, expressed as % inhibition, HCT116 [2]: 65.7%
Reduced relative colony forming efficiency, expressed as % inhibition, A549 [3]: 73.1%
Reduced relative colony forming efficiency, expressed as % inhibition, MDA-MB-231 [4]: 94.11%
Reduced relative colony forming efficiency, expressed as % inhibition, MIA PaCa-2 [5]: 77.39%
Reduced relative colony forming efficiency, expressed as % inhibition, PC-3 [6]: 89.58%
Reduced relative colony forming efficiency, expressed as % inhibition, HepG2 [7]: 75.42%

GCCACAGGATAAAAACACAA (antisense; DNA, all phosphorothioate, methylation of C not given here) [AS-II-2009-20]
Reduced relative colony forming efficiency, expressed as % inhibition, T24 [1]: 61.84%
Reduced relative colony forming efficiency, expressed as % inhibition, HCT116 [2]: 69.92%
Reduced relative colony forming efficiency, expressed as % inhibition, A549 [3]: 93.32%
Reduced relative colony forming efficiency, expressed as % inhibition, MDA-MB-231 [4]: 96.25%
Reduced relative colony forming efficiency, expressed as % inhibition, MIA PaCa-2 [5]: 93.74%
Reduced relative colony forming efficiency, expressed as % inhibition, PC-3 [6]: 83.36%
Reduced relative colony forming efficiency, expressed as % inhibition, HepG2 [7]: 96.99%

GCACATCTTCAGTTCATTTA (DNA, all phosphorothioate, methylation of C not given here) [AS-II-1362-20]
Reduced relative colony forming efficiency, expressed as % inhibition, HCT116 [2]: 78.47%
Reduced relative colony forming efficiency, expressed as % inhibition, A549 [3]: 83.9%
Reduced relative colony forming efficiency, expressed as % inhibition, MDA-MB-231 [4]: 70.22%
Reduced relative colony forming efficiency, expressed as % inhibition, MIA PaCa-2 [5]: 44.14%
Reduced relative colony forming efficiency, expressed as % inhibition, PC-3 [6]: 77.38%
Reduced relative colony forming efficiency, expressed as % inhibition, HepG2 [7]: 80.41%

GGGCACATCTTCAGTTCATT (DNA, all phosphorothioate, methylation of C not given here) [AS-II-1364-20]
Reduced relative colony forming efficiency, expressed as % inhibition, T24 [1]: 66.59%
Reduced relative colony forming efficiency, expressed as % inhibition, HCT116 [2]: 77.29%
Reduced relative colony forming efficiency, expressed as % inhibition, A549 [3]: 95.59%
Reduced relative colony forming efficiency, expressed as % inhibition, MDA-MB-231 [4]: 93.87%
Reduced relative colony forming efficiency, expressed as % inhibition, MIA PaCa-2 [5]: 59.34%
Reduced relative colony forming efficiency, expressed as % inhibition, PC-3 [6]: 79.01%

CGGGTCCGTGATGGGCGCGA (dC*dG*dG*dG*dT*dC*dC*dG*dT*dG*dA*dT*dG*dG*dG*dC*dG*dC*dG*dA; antisense) [AS-II-217-20]
Reduced relative colony forming efficiency, expressed as % inhibition, T24 [1]: 65.02%
Reduced relative colony forming efficiency, expressed as % inhibition, HCT116 [2]: 61.85%
Reduced relative colony forming efficiency, expressed as % inhibition, MDA-MB-231 [4]: 52.7%
Reduced relative colony forming efficiency, expressed as % inhibition, MIA PaCa-2 [5]: 87.38%
Reduced relative colony forming efficiency, expressed as % inhibition, PC-3 [6]: 87.41%
Reduced relative colony forming efficiency, expressed as % inhibition, HepG2 [7]: 99.55%

TTAGTGGTCAGGAGAATGTA (antisense; DNA, all phosphorothioate, methylation of C not given here) [AS-II-1819-20]
Reduced relative colony forming efficiency, expressed as % inhibition, T24 [1]: 53.74%
Reduced relative colony forming efficiency, expressed as % inhibition, MDA-MB-231 [4]: 90.68%
Reduced relative colony forming efficiency, expressed as % inhibition, MIA PaCa-2 [5]: 20.02%
Reduced relative colony forming efficiency, expressed as % inhibition, PC-3 [6]: 85.46%
Reduced relative colony forming efficiency, expressed as % inhibition, HepG2 [7]: 83.89%

ACCCTTCCCATTGGCTGCGC (dA*dC*dC*dC*dT*dT*dC*dC*dC*dA*dT*dT*dG*dG*dC*dT*dG*dC*dG*dC; antisense) [AS-II-6-20]
Reduced relative colony forming efficiency, expressed as % inhibition, T24 [1]: 73.85%
Reduced relative colony forming efficiency, expressed as % inhibition, MDA-MB-231 [4]: 88.4%
Reduced relative colony forming efficiency, expressed as % inhibition, MIA PaCa-2 [5]: 95.15%
Reduced relative colony forming efficiency, expressed as % inhibition, PC-3 [6]: 89.21%
Reduced relative colony forming efficiency, expressed as % inhibition, HepG2 [7]: 97.89%
